Assay results reported in PubChem BioAssay (NCI).
Values after ≈ are worked out from the molar mass of the structure shown.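 Test compounds were applied to cells in 96-well plates for 48 hours at 5 doses. Here, GI50 denotes the concentration required for 50% inhibition of growth. At the TGI there is no net growth.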

Legend:
Experiment in all cases: growth of human tumour cells (NCI), 48 h
COLO 205 colon = test system: COLO 205 colon
EKVX NSCLC = test system: EKVX NSCLC
HS 578T breast = test system: HS 578T breast
NCI-H226 lung = test system: NCI-H226 lung
RPMI-8226 leukemia = test system: RPMI-8226 leukemia
SF-295 CNS = test system: SF-295 CNS
SK-MEL-28 melanoma = test system: SK-MEL-28 melanoma
SK-OV-3 ovarian = test system: SK-OV-3 ovarian
SN12C renal = test system: SN12C renal
TK-10 renal = test system: TK-10 renal

Row | Compound | TGI (COLO 205 colon) | TGI (EKVX NSCLC) | TGI (HS 578T breast) | TGI (NCI-H226 lung) | TGI (RPMI-8226 leukemia) | TGI (SF-295 CNS) | TGI (SK-MEL-28 melanoma) | TGI (SK-OV-3 ovarian) | TGI (SN12C renal) | TGI (TK-10 renal) | GI50 (COLO 205 colon) | GI50 (EKVX NSCLC) | GI50 (HS 578T breast) | GI50 (RPMI-8226 leukemia) | GI50 (SF-295 CNS) | GI50 (SK-MEL-28 melanoma) | GI50 (SN12C renal)
1 | CC1C(OS(=O)(=O)c2ccc3[nH]c(=S)sc3c2)CC2C3(C)CCC2(C(C)C(=O)O)C(O)C13 (stereo not drawn) | 38 µM | > 100 µM | > 100 µM | 60.4 µM | 40.8 µM | 95.1 µM | > 100 µM | > 100 µM | > 100 µM | > 100 µM |  |  |  |  |  |  | 
2 | O=c1[nH]c2ccccc2c2oc3ccccc3c12 | > 100 µM | > 100 µM | > 100 µM | > 100 µM |  | > 100 µM | > 100 µM | > 100 µM | > 100 µM | > 100 µM |  |  |  |  |  |  | 
3 | NCCCCNOCCCN | > 100 µM | > 100 µM | > 100 µM | > 100 µM | > 100 µM | > 100 µM | > 100 µM | > 100 µM | > 100 µM | > 100 µM |  |  |  |  |  |  | 
4 | CC1=C(C(=O)NNC(=O)C[N+](C)(C)C)CC(C(=O)NNC(=O)C[N+](C)(C)C)=C(C)N1 | > 100 µM | > 100 µM | > 100 µM | > 100 µM | > 100 µM | > 100 µM |  | > 100 µM | > 100 µM | > 100 µM |  |  |  |  |  |  | 
5 | C(=C\c1cc[n+](CCc2ccccc2)cc1)/c1ccccc1 | 25.6 µM | > 100 µM | 54.6 µM | 48.9 µM | 53.2 µM | > 100 µM | 26.8 µM | > 100 µM | 16.4 µM | > 100 µM |  |  |  |  |  |  | 
6 | CCc1nc(N)nc(N)c1-c1ccc(N2CCOCC2)c(N=[N+]=[N-])c1 | > 100 µM | > 100 µM | > 100 µM | > 100 µM | > 100 µM | > 100 µM | > 100 µM | > 100 µM | > 100 µM | > 100 µM |  |  |  |  |  |  | 
7 | CC(C)(C)OC(=O)CC(NC(=O)OCc1ccccc1)NC(=O)OC(C)(C)C (stereo not drawn) |  |  |  |  |  |  |  |  |  |  | 50.6 µg/mL (≈ 128 µM) | 38.8 µg/mL (≈ 98.4 µM) | 85.4 µg/mL | 32.8 µg/mL (≈ 83.2 µM) | 46.2 µg/mL (≈ 117 µM) | 67.6 µg/mL (≈ 171 µM) | 51.9 µg/mL (≈ 132 µM)
8 | COc1cc(S(=O)(=O)Nc2nc(-c3ccc(N=Cc4ccccc4O)cc3)cs2)ccc1Cl | 61.8 µM | 86.8 µM | > 100 µM | > 100 µM |  | > 100 µM | > 100 µM | > 100 µM | 77.3 µM | > 100 µM |  |  |  |  |  |  | 
9 | CC(C)C(=O)Cc1ccc2ccccc2n1 | > 100 µM | > 100 µM | > 100 µM | > 100 µM | 19.9 µM | > 100 µM | > 100 µM | > 100 µM | > 100 µM | > 100 µM |  |  |  |  |  |  | 
10 | CCOC(=O)c1c(C)n(-c2ccc(C)cc2)c(=O)c2ccccc2c(=O)c2c(=O)ccc(=O)c1=2 | 36.1 µM | 80 µM | 44.7 µM | 59.7 µM | 24.9 µM |  | 27.1 µM | 73.3 µM | 66.7 µM | 29.4 µM |  |  |  |  |  |  | 
11 | O=c1c2ccccc2nc2n1CCc1c-2[nH]c2ccccc12 | 37.9 µM | 60.5 µM | 50.5 µM |  | > 100 µM | 27 µM | 62.4 µM | 37.8 µM |  | 63.5 µM |  |  | 22.6 µM |  |  |  | 
12 | CC(=O)Nc1ccc2c(c1)C(=O)c1ccccc1-2 | > 100 µM | > 100 µM |  | > 100 µM | > 100 µM | > 100 µM | > 100 µM | > 100 µM | > 100 µM | > 100 µM |  |  |  |  |  |  | 
13 | COc1cc(CCN)c(OC)c(OC)c1 | > 100 µM | > 100 µM | > 100 µM |  | > 100 µM | > 100 µM | > 100 µM | > 100 µM | > 100 µM | > 100 µM |  |  |  |  |  |  | 
14 | O=S1(=O)C(=C(c2ccccc2)c2ccccc2)S(=O)(=O)c2ccccc21 | > 100 µM | > 100 µM |  | > 100 µM | > 100 µM | > 66.4 µM | > 100 µM | > 100 µM | > 100 µM |  |  |  |  |  |  |  | 
